Laboratory results: the supplement of paper PMC10290057

How the values were obtained:
HCT116 [1] = test: efficacy (fitted maximal change in viability relative to DMSO control); higher = less cytotoxic (negative = loss of viability); settings: 48 h
HCT116 [2] = test: AC50 cell viability (CellTiter-Glo); higher = less potent; settings: 48 h
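For AC50 cell viability (CellTiter-Glo) in this document: HCT116 colorectal carcinoma cells screened at five concentrations per compound, luminescent viability scaled between DMSO wells and empty wells on each plate, curves fitted per compound.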
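For efficacy (fitted maximal change in viability relative to DMSO control) in this document: Luminescence-based viability readout, five doses per compound, normalized against on-plate DMSO and empty-well controls, followed by dose-response curve fitting for every drug.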

| Compound | efficacy (HCT116 [1]) [%] | AC50 cell viability (HCT116 [2]) [µM] |
| --- | --- | --- |
| CC(C)Nc1cc(-c2c[nH]c(C(=O)N[C@H](CO)c3cccc(Cl)c3)c2)c(Cl)cn1 [Ulixertinib] | -114 | 1.86 |
| C/C(=N\Nc1nnc2c(n1)[nH]c1c(C)cccc12)c1ccccn1 [VLX-600] | -87.1 | 0.742 |
| COc1ccc(C(=O)CC2(O)C(=O)Nc3c(Cl)ccc(Cl)c32)cc1 (stereo not drawn) [YK-4-279] | -57.1 | 1.18 |
| N#Cc1ccc(-c2c(-c3nnc[nH]3)sc(N3CCOCC3)c2C#N)c(F)c1 | -83.5 | 1.86 |
| Cn1cc(-c2ccc([S+](=O)([O-])n3ccc(/C=C/C(=O)Nc4ccccc4N)c3)cc2)cn1 [4SC-202] | -76.5 | 1.48 |
| CN1CC[C@H]([C@@H]1CO)C2=C3OC(=C/C(=O)C3=C(O)C=C2O)\C4=C(Cl)C=C(C=C4)C(F)(F)F [Voruciclib] | -83.8 | 7.42 |
| C[C@H](Cc1ccc(O)c(O)c1)[C@@H](C)Cc1ccc(O)c(O)c1 [Masoprocol] | -46.2 | 18.6 |
| O=C(/C=C\n1cnc(-c2cc(C(F)(F)F)cc(C(F)(F)F)c2)n1)N1CC(F)(F)C1 [KPT-276] | -75.6 | 0.59 |
| Cc1cc(Nc2ncc(Cl)c(Nc3ccccc3[S+](=O)([O-])C(C)C)n2)c(OC(C)C)cc1C1CCNCC1 [Ceritinib] | -115 | 13.2 |
| CC(C)NC(=O)COc1cccc(-c2nc(Nc3ccc4[nH]ncc4c3)c3ccccc3n2)c1 [KD-025] | -66.8 | 8.33 |
| CCCCCNC(=O)N1CCC(CN(Cc2ccc(Cl)cc2)Cc2ccc([N+](=O)[O-])s2)C1 (stereo not drawn) [SR-9011] | -71 | 20.9 |
| C[C@@H](Oc1ccc2[nH]nc(/C=C/c3cnn(CCO)c3)c2c1)c1c(Cl)cncc1Cl | -79.4 | 0.661 |
| Cc1cc(Nc2cc(CN3CCOCC3)c3nc(C)c(Cc4ccc(Cl)cc4F)n3n2)[nH]n1 [Gandotinib] | -110 | 5.9 |
| O=C(Nc1cccc(Cl)c1)Nc1ncc(CCNc2ncnc3ccsc23)s1 [SNS-314] | -91.8 | 18.6 |
| N#C/N=C(\NCCCCCCOc1ccc(Cl)cc1)Nc1ccncc1 [GMX-1778] | -93.3 | 0.0132 |
| COc1cc2c(cc1O)CC[C@@H]1[C@@H]2CC[C@]2(C)[C@@H](O)CC[C@@H]12 [2-Methoxyestradiol (2-MeOE2)] | -63.9 | 2.35 |
| CC[C@H](CO)Nc1nc(NCc2ccccc2)c2ncn(C(C)C)c2n1 [Seliciclib] | -84.6 | 10.5 |
| CC1=CC=C(C=C1)N(C\C2=N\CCN2)C3=CC=CC(=C3)O [Phentolamine mesilate] | -60 | 20.9 |
| CC[C@]12\C=C/CN3CC[C@]4([C@@H](N(C)C5=CC(=C(C=C45)[C@]6(C[C@H]7C[C@H](CN(C7)CC8=C6[NH]C9=C8C=CC=C9)C(C)(F)F)C(=O)OC)OC)[C@](O)([C@@H]1OC(C)=O)C(=O)OC)[C@H]23 [Vinflunine] | -64.1 | 0.0986 |
| OC1=C(Cl)C=C(N\C2=C(\C(=O)NC2=O)C3=C(C=CC=C3)[N+]([O-])=O)C=C1 | -54.8 | 20.9 |

| Compound | efficacy (HCT116 [1]) [%] | AC50 cell viability (HCT116 [2]) [µM] |
| --- | --- | --- |
| Clc1ccccc1C(c1ccccc1)(c1ccccc1)n1ccnc1 [Clotrimazole] | -81.6 | 20.9 |
| O=C(CC12CC3CC(CC(C3)C1)C2)Nc1cccc2nc(NCCNCCO)ccc12 | -101 | 26.3 |
| COc1cc(C)c(Sc2cnc(NC(=O)c3ccc(CNC(C)C(C)C)cc3)s2)cc1C(=O)N1CCN(C(C)=O)CC1 (stereo not drawn) [ITK Inhibitor] | -132 | 14.8 |
| CN(C)c1ccc(-c2nc3c(N4CCN(CC(=O)Nc5nccs5)CC4)c(Cl)cnc3[nH]2)cc1 | -34.1 | 0.723 |
| CC(NC1=NC=NC2=C1[NH]C=N2)\C3=C\C4=C(C(=CC=C4)Cl)C(=O)N3C5=CC=CC=C5 (stereo not drawn) [IPI-145] | -58.5 | 14.8 |
| CCc1ccc(OCc2ccccc2C(=O)Nc2ccc3nc(C)cc(N)c3c2)cc1 [JTC-801] | -94.1 | 3.32 |
| CN1CCc2c(c3ccccc3n2Cc2ccc(C(=O)NO)cc2)C1 [Tubastatin A] | -93.8 | 10.5 |
| Clc1ccc(COC(Cn2ccnc2)c2ccc(Cl)cc2Cl)c(Cl)c1 (stereo not drawn) [Miconazole nitrate] | -97.9 | 20.9 |
| OCCC#Cc1nc(-c2ccc(F)cc2)c(-c2ccncc2)n1CCCc1ccccc1 | -64.2 | 23.5 |
| COc1cc(N2CCC(N(C)C)CC2)ccc1Nc1ncc(Cl)c(Nc2ccccc2P(C)(C)=O)n1 | -87.7 | 0.742 |
| COc1ccc(Oc2cc(NCCC(F)(F)F)c3ncc(-c4ccc(C(=O)NC5CC5)c(C)c4)n3n2)c(F)c1F | -56.8 | 0.372 |
| Nc1ccccc1NC(=O)c1ccc(CNC(=O)OCc2cccnc2)cc1 [Entinostat] | -83.4 | 2.95 |
| O=C(NO)c1cnc(NC2(c3cccc(F)c3)CCCCC2)nc1 [ACY-775] | -75.6 | 16.6 |
| CN(C)CCCNC(=O)c1ccc(-c2cc(O)c3ncccc3c2)cc1 [ML324] | -86.4 | 14.8 |
| Clc1ccc(CCC(Cn2ccnc2)Sc2c(Cl)cccc2Cl)cc1 (stereo not drawn) [Butoconazole nitrate] | -51.6 | 20.9 |
| CN1c2ccccc2C(=O)N2CCc3c([nH]c4ccccc34)C21 (stereo not drawn) [Evodiamine] | -64.2 | 1.66 |
| CO[C@H]1C[C@H]2OC[C@@]2(OC(C)=O)[C@H]3[C@H](OC(=O)C4=CC=CC=C4)[C@]5(O)C[C@H](OC(=O)[C@H](O)[C@@H](NC(=O)OC(C)(C)C)C6=CC=CC=C6)/C(=C(/[C@@H](OC)C(=O)[C@]13C)C5(C)C)C [Cabazitaxel] | -57.4 | 0.00263 |
| O=C(CCCCCCC(=O)Nc1cccnc1)NO [Pyroxamide] | -87.9 | 2.95 |
| Clc1cc(Cl)cc(CNc2ncncc2-c2ccc3c(c2)OCO3)c1 | -78.4 | 13.2 |
| O=C1Nc2ccc(Cl)cc2[C@@](C#CC2CC2)(C(F)(F)F)O1 [Efavirenz] | -97.1 | 26.3 |

| Compound | efficacy (HCT116 [1]) [%] | AC50 cell viability (HCT116 [2]) [µM] |
| --- | --- | --- |
| CC(=O)C1CCC2C3CC\C4=C\C(=O)CCC4(C)C3CCC12C (stereo not drawn) [Progesterone] | -53.8 | 16.6 |
| O=C(/C=C/c1ccc(Cl)cc1)N1CCC2(CC1)CN(Cc1ccc(Cl)c(Cl)c1)C(=O)O2 | -85.1 | 23.5 |
| C[S+](=O)([O-])c1ccc([C@@H](CC2CCCC2)C(=O)Nc2nccs2)cc1 [Ro-28-1675] | -67.1 | 23.5 |
| Cc1ccc(Nc2nnc(Cc3ccncc3)c3ccccc23)cc1Br [ACC-789] | -84.8 | 20.9 |
| CC(C)c1c(C(=O)Nc2ccccc2)c(-c2ccccc2)c(-c2ccc(F)cc2)n1CC[C@@H](O)C[C@@H](O)CC(=O)O [Atorvastatin calcium] | -63.9 | 12.9 |
| C/C=C1\NC(=O)[C@H]2CSSCC/C=C\[C@H](CC(=O)N[C@H](C(C)C)C(=O)N2)OC(=O)[C@H](C(C)C)NC1=O [Romidepsin] | -94.8 | 0.00742 |
| COc1cc(C(=O)N2CC[C@@H](O)[C@@H](N)C2)cc2nc(-c3cc4ccccc4n3CC3CC3)n(C)c12 [GSK-484] | -94.1 | 23.5 |
| CC(N[C@H]1CCCC[C@@H]1NC(=O)c1ccc(Cl)cc1)c1cccc2ccccc12 (stereo partly drawn) [Calhex-231] | -92.8 | 9.34 |
| COc1ccc(CC2c3cc(OC)c(OC)cc3CC[N+]2(C)CCC(=O)OCCCCCOC(=O)CC[N+]2(C)CCc3cc(OC)c(OC)cc3C2Cc2ccc(OC)c(OC)c2)cc1OC (stereo not drawn) [Atracurium besylate] | -77.8 | 23.5 |
| C=C1C(=O)O[C@@H]2[C@H]3O[C@]3(C)CC/C=C(\C)CC[C@@H]12 [Parthenolide] | -97.4 | 13.2 |
| Oc1ccc(-c2nc(-c3ccncc3)c(-c3ccc(F)cc3)[nH]2)cc1 | -80 | 23.5 |
| OC1=CC=C(C=C1)C/2=C/C3=C(OC2)C=C(O)C=C3 [Idronoxil] | -73.9 | 3.72 |
| Cc1ccc(-c2ccc3ncc4c(c3n2)n(C2CCN(C(=O)[C@H](C)O)CC2)c(=O)n4C)cn1 | -86.9 | 0.166 |
| CCN1\C(=C(C(=O)NC)/C(=O)C2=C1N=C(C=C2)C#CC(C)(O)COC)N (stereo not drawn) | -31.1 | 18.6 |
| CC(C)N1N/C(=C2\C=c3cc(O)ccc3=N2)c2c(N)ncnc21 [Torkinib] | -125 | 5.25 |
| CC(=O)Nc1ccc(C(=O)Nc2ccccc2N)cc1 [Tacedinaline] | -69.7 | 5.9 |
| OC(c1ccc(-c2ccc(CN3CCN(Cc4ccncc4)CC3)cc2)c(F)c1)(C(F)(F)F)C(F)(F)F [SR-2211] | -44.3 | 10.5 |
| COc1ccc2[nH]c3c(c2c1)CCN[C@]31CS[C@@H]2c3c(OC(C)=O)c(C)c4c(c3[C@H](COC1=O)N1[C@@H]2[C@H]2c3c(cc(C)c(OC)c3O)C[C@@H]([C@@H]1O)N2C)OCO4 [Lurbinectedin] | -72.4 | 0.00539 |
| CCCCCCCc1ccc(CCc2cccc(O)c2C(=O)O)cc1 [MG-149] | -42.3 | 18.6 |
